Series [1] concerns HeLa-DsRed cells. In words: Intracellular delivery of (−30)GFP-Cre/LNP (GFP-positive cells). Type of series: cell-based. Particulars: flow cytometry, 6 h; 25 nM (−30)GFP-Cre; lipidoid 3.3 mg/L. How it is done:
(§1) The final (−30)GFP-Cre protein concentration is 25 nM, and lipidoid concentration is 3.3 mg/L. For the gene recombination functional study, HeLa-DsRed cells were treated with same conditions and the red fluorescence emission from DsRed was analyzed by flow cytometry 24 h after delivery.
A Cre recombinase protein fused to a negatively supercharged GFP variant ((−30)GFP-Cre) was used as a model cargo protein. The (−30)GFP-Cre protein was able to complex with cationic LNPs through electrostatic attraction and other types supramolecular interactions. The cellular uptake of LNPs could be determined by direct analysis of intracellular GFP fluorescent intensity as reported in Wang. HeLa-DsRed cells were used in this study, which expressed red fluorescent DsRed upon Cre-mediated recombination to facilitate the functional study of delivered proteins in the following study.
The (−30)GFP-Cre protein loaded LNPs (GFP-Cre/LNPs) were prepared at first by simply mixing precalculated amount of aqueous solution of LNPs and protein at ambient conditions. For the intracellular delivery, after incubation with GFP-Cre/LNPs nanoparticles for 6 h, the GFP-positive cells were observed using fluorescence microscopy, harvested and counted by flow cytometry. […] The intracellular (−30)GFP-Cre protein delivery efficiencies were further quantified by flow cytometry.

The test system of series [2] is HeLa-DsRed cells. In words: Cre-mediated gene recombination (DsRed expression) after (−30)GFP-Cre/LNP delivery. Type of series: cell-based. Particulars: 24 h; 25 nM (−30)GFP-Cre; lipidoid 3.3 mg/L. The protocol: as §1
The top 12 of LNPs identified through intracellular delivery screening experiments were further tested for gene recombination using HeLa-DsRed model cells. The expression of DsRed from Cre protein mediated gene recombination was analyzed after 24 h of co-incubation with free (−30)GFP-Cre protein and protein loaded LNPs. […] Most of the test LNPs, on the other hand, efficiently delivered (−30)GFP-Cre protein and induced gene recombination, with 14-46% of the cells positive for DsRed.

Series [3] in a line: Thiol-triggered size variation of OCholB LNPs (DTT, cysteine; DLS). Type of series: physicochemical. Particulars: 10 mM DTT, 24 h. An excerpt:
The thiol-trigged degradation and dissociation of the OCholB LNPs were studied by time-dependent DLS measurements and TEM observation. […] The disruption of the vesicle structure is considered to be resulted from the thiol-exchange and disulfide bond cleavage reactions of OCholB lipidoids. We next investigated whether the thiol-containing molecules (e.g. albumin, cysteine, homocysteine, cysteinylglycine, etc.) in the serum may induce the structural disintegration of these disulfide bond-containing LNPs. The stabilities of LNPs in the presence of 20 μM of L-cysteine (Cys), which mimics the free thiols on the small- and macromolecules presented in the serum, were examined. […] While the degrees of size changes vary between lipidoids with different amine head groups, all lipidoids were more responsive to DTT (modeling intracellular conditions) than to Cysteine (modeling conditions in the blood serum).

Series [4] has as its system HeLa-DsRed cells. Type of series: cell-based. Particulars: (−30)GFP-Cre 25, 50 and 100 nM. The protocol: (§2) The internalization kinetics and efficiencies of OCholB LNPs were then studied using NR loaded LNPs and HeLa cells. […] Next, all of the NR delivery efficiencies of eight OCholB LNPs were determined after 8 h of exposure. […] Representative fluorescent images of NR/LNPs (NR/75-OCholB, NR/76-OCholB and NR/77-OCholB) treated HeLa cells are shown in FIG. 12D, from which it is easily observed that NR was delivered into the cells and mainly distributed in cytoplasm, by OCholB LNPs. Next, the internalization of negatively charged hydrophilic fluorescent dye, calcein, was studied. […] Next, the use of OCholB LNPs for the intracellular delivery of macromolecular cargo was explored, using fluorescent recombinant (−30)GFP-Cre protein and HeLa-DsRed cells as the model system. […] Delivery efficiency was tested at a range of (−30)GFP-Cre protein concentrations (25, 50 and 100 nM), with a consistent lipid/protein ratio (i.e., delivery with the final lipid concentration of 1.7, 3.3, and 6.6 μg mL^−1 respectively). 33.2%, 43.8% and 74% of GFP positive (GFP^+) cells were recorded for (−30)GFP-Cre/Lpf2k treated cells with the concentration of (−30)GFP-Cre 25 nM, 50 nM and 100 nM, respectively. […] The typical flow cytometry profiles of naked (−30)GFP-Cre protein and (−30)GFP-Cre loaded nanoparticles ((−30)GFP-Cre/75-OCholB, (−30)GFP-Cre/76-OCholB, (−30)GFP-Cre/77-OCholB and (−30)GFP-Cre/Lpf2k) treated HeLa-DsRed cells were shown in and FIG. 12H ([lipidoid]=6.6 μg mL^−1 and [(−30)GFP-Cre]=100 nM), which is consistent with the statistical results shown in FIG. 12G. Furthermore, the representative fluorescent images from the protein and protein/nanoparticle treated HeLa-DsRed cells are also shown in FIG. 12I.

In series [5] the test system is HeLa cells. In words: Internalization of Nile red loaded nanoparticles (NR+ cells). Type of series: cell-based. Particulars: 8 h of exposure. How it is done: as §2
Series [6] has as its system HeLa cells. In words: GFP mRNA delivery (GFP+ cells). Type of series: cell-based. Particulars: LNP/mRNA=10/1; [mRNA]=0.86 μg mL^−1; 24 h exposure. An excerpt:
Messenger RNA delivery has great potentials for cancer therapy, protein replacement therapy and neurological disorder treatments.^42 The intracellular delivery of mRNA using OCholB LNPs was studied using GFP mRNA and different cell lines (HeLa, B16F10, HEK-293, NIH/3T3 and Jurkat). The weight ratio of LNP/mRNA was optimized at first using HeLa cells. […] The weight ratio of LNP/mRNA=10/1 was then chose for the following mRNA delivery studies. […] Then the intracellular delivery efficiencies of all fully substituted OCholB LNPs were tested against HeLa cells, and Lpf2k and naked GFP mRNA were used as controls (LNP/mRNA=10/1; [mRNA]=0.86 μg mL^−1; 24 h exposure). […] As to the OCholB LNPs, 75-OCholB (62.0% of GFP^+ cells), 76-OCholB (79.8%), 77-OCholB (73.5%), 78-OCholB (67.1%), 80-OCholB (55.6%), 81-OCholB (51.6%) and 304-OCholB (52.1%) are all determined to be effective. Typical fluorescent images of mRNA/LNPs (mRNA/75-OCholB, mRNA/76-OCholB and mRNA/77-OCholB) treated HeLa cells are shown in FIG. 14C. Comparing to untreated HeLa cells, strong green fluorescent signals were recoded from nanoparticles incubated cells, which is consistent with the flow cytometry data as shown in FIG. 14D. Meanwhile, both 87-OCholB (6.1%) and 90-OCholB (2.5%) are found to be inefficient for GFP mRNA delivery into HeLa cells, which is consistent with the internalization studies using NR (FIG. 12C) and (−30)GFP-Cre protein (FIG. 12F) as the fluorescent reporters.

Series [7] deals with HeLa-DsRed cells. In words: Genome editing efficiency of (−30)GFP-Cre/OCholB LNPs (DsRed+ cells). Type of series: cell-based. Particulars: (−30)GFP-Cre 25, 50 and 100 nM. An excerpt:
In this context, the internalization mechanism of the (−30)GFP-Cre/LNPs complexes was studied at first, by introducing different endocytosis inhibitors, i.e., sucrose (clathrin-mediated endocytosis inhibitor), methyl-β-cyclodextrin (M-β-CD, cholesterol-depleting agent), dynasore (dynamin II inhibitor) and nystatin (caveolin-mediated endocytosis inhibitor), following our previously reported procedures. […] Comparing to other combinatorial library studies, it is clear that even loaded with same cargoes and tested against same cell line, different lipidoids with different chemical structures could be internalized through very distinct pathways. Next, the genome-editing efficiencies of (−30)GFP-Cre/LNPs were determined by flow cytometry after 24 h of incubation (with 8 h of (−30)GFP-Cre/LNPs complex exposure). Three different concentrations of protein/lipidoid complexes (25 nM/1.7 μg mL^−1, 50 nM/3.4 μg mL^−1, and 100 nM/6.6 μg mL^−1) were tested for each lipidoid nanoparticle. […] For example, the DsRed^+ cells were recorded as 10.5%/24.9%/88.9%, 13.5%/55.4%/88.8%, and 27.7%/47.8%/94.7% for (−30)GFP-Cre loaded 75-OCholB, 76-OCholB and 77-OCholB, respectively, at the protein concentration of 25, 50 and 100 nM. […] Then, the cytotoxicity profiles of (−30)GFP-Cre/LNPs, (−30)GFP-Cre/Lpf2k and naked (−30)GFP-Cre at different concentrations against HeLa-DsRed cells (8 h of exposure; (−30)GFP-Cre/LNPs=25 nM/1.7 μg mL^−1, 50 nM/3.4 μg mL^−1, and 100 nM/6.6 μg mL^−1) are measured using MTT assay after 24 h of incubation. […] For (−30)GFP-Cre/75-OCholB treated cells, the viabilities were determined to be 95.5%, 91.8% and 83.1%, at the protein concentration of 25, 50 and 100 nM, respectively; the numbers for (−30)GFP-Cre/76-OCholB and (−30)GFP-Cre/77-OCholB are 97.8%/98.2%/97.2 and 100.9%/96.6%/98.6%. […] Meanwhile, the morphology changes of HeLa-DsRed cell treated with different nanoparticle formulations were studied and the results are shown in FIG. 15E. […] Samples found in upper left quadrant are non-toxic and inefficient for delivery; samples in lower left quadrant are toxic and inefficient; samples in lower right quadrant are efficient but toxic; samples in upper right quadrant are non-toxic and efficient, which would be top candidates for further study. It is clear that Lpf2k (shown in dotted purple circle) at high concentration is relatively efficient for genome editing, while also toxic to the target cells. On the other hand, most of the (−30)GFP-Cre loaded OCholB LNPs are almost non-toxic when compared to (−30)GFP-Cre/Lpf2k, similar to naked (−30)GFP-Cre protein. 87-OCholB, 90-OCholB and 304-OCholB (shown in dotted dark blue circle) are less efficient for genome-editing; while high genome editing efficacy and excellent tolerability were achieved by using 75-OCholB, 76-OCholB and 77-OCholB (shown in dotted green circle).

Six compounds from patent US12133855B2, “Lipid-like nanocomplexes and uses thereof” (Trustees of Tufts College, priority 2018, dated 2024) can be followed below.

`CCCCCCCCCCCCCC[Se]CCOC(=O)CCN(CCC(=O)OCC[Se]CCCCCCCCCCCCCC)CCC1CCCN1C` (stereo not drawn) [Lipidoid 77-O17Se]: the GFP-positive cells in the series on HeLa-DsRed cells [1] worked out at 37%. Also, the “cells positive for DsRed (protein transfection efficiency)” value (shortened to “cells positive for DsRed”) in the series with HeLa-DsRed cells [2] was determined as 31.0%.

For `CC(C)CCCC(C)C1CCC2C3CC=C4CC(OC(=O)NCCSSCCOC(=O)CCN(CCC(=O)OCCSSCCNC(=O)OC5CCC6(C)C(=CCC7C6CCC6(C)C(C(C)CCCC(C)C)CCC76)C5)CCN5CCOCC5)CCC4(C)C3CCC12C` (stereo not drawn) [Lipidoid 90-OCholB], the “increase in averaged hydrodynamic diameter” value in series [3] was 179.5%. For the same compound, in the series on HeLa-DsRed cells [4], the “(−30)GFP-Cre delivery efficiency (GFP^+ cells), overall” value is recorded as “lowest delivery efficiencies”. In addition, in the series on HeLa cells [5], the “NR^+ cells” value stood at 12.9%. Further, the “GFP^+ cells” value with HeLa cells [6] was 2.5%. For the same compound, the “genome editing efficacy (DsRed^+ cells), overall” value in the series on HeLa-DsRed cells [7] is recorded as “less efficient at delivery”.

`CC(C)CCCC(C)C1CCC2C3CC=C4CC(OC(=O)NCCSSCCOC(=O)CCN(CCCN(CCO)CCO)CCC(=O)OCCSSCCNC(=O)OC5CCC6(C)C(=CCC7C6CCC6(C)C(C(C)CCCC(C)C)CCC76)C5)CCC4(C)C3CCC12C` (stereo not drawn) [Lipidoid 87-OCholB]: in series [3], the “increase in averaged hydrodynamic diameter” value is 210.3%. The “(−30)GFP-Cre delivery efficiency (GFP^+ cells), overall” value in the series with HeLa-DsRed cells [4] was “lowest delivery efficiencies”. Besides, in the series with HeLa cells [5], the “NR^+ cells” value is given as “lowest transfection efficacy, comparable to the untreated control group”. The “GFP^+ cells” value in the series on HeLa cells [6] was 6.1%. In addition, the “genome editing efficacy (DsRed^+ cells), overall” value in the series with HeLa-DsRed cells [7] is reported as “less efficient at delivery”.

For the compound `CCCCCCCCCCCCCCSCCOC(=O)CCN(CCC(=O)OCCSCCCCCCCCCCCCCC)CCC1CCCN1C` (stereo not drawn) [Lipidoid 77-O17S], the “cells positive for DsRed” value in the series on HeLa-DsRed cells [2] was 38.6%.

With `CCCCCCCCCCCCCC[Se]CCOC(=O)CCN(CCC(=O)OCC[Se]CCCCCCCCCCCCCC)CCN(C)C` [Lipidoid 78-O17Se], the “cells positive for DsRed” value in the series on HeLa-DsRed cells [2] is reported as 37.8%.

Turning to `CCCCCCCCCCCCCCSCCOC(=O)CCN(CCCN(C)C)CCC(=O)OCCSCCCCCCCCCCCCCC` [Lipidoid 80-O17S], the “cells positive for DsRed” value with HeLa-DsRed cells [2] was determined as 45.6%.
